# Source: US10363257B2 (ZENITH EPIGENETICS LTD., priority 2013, dated 2019)
# Experiments:
# human AML MV-4-11 cells = assay: Inhibition of cell proliferation in MV4-11 cells (CellTiter Aqueous One); assay type: cell-based; conditions: for IC50: MV4-11, 72 h; for Cell Proliferation activity: 72 h
# Summary of the method: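 Exponentially growing MV-4-11 cells (5×10^4/well) were treated immediately with two-fold dilutions of compound from 30 μM to 0.2 μM, in triplicate, for 72 h at 37° C, 5% CO2. Viability was measured by MTS absorbance at 490 nm after 3–4 h. Proliferation relative to DMSO after blank correction gave IC50.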
# hIL-6 mRNA = assay: Inhibition of hIL-6 mRNA transcription in LPS-stimulated U937 cells; assay type: cell-based; conditions: Homo sapiens, U-937; PMA-differentiated U937 cells, 1 h pretreatment, 1 ug/mL LPS stimulation, 3 h; read-out: IL-6 activity (Inhibition of hIL-6 mRNA Transcription)
# Procedure: In this example, hIL-6 mRNA in tissue culture cells was quantitated to measure the transcriptional inhibition of hIL-6 when treated with a compound of the invention.
# Human leukemic monocyte lymphoma U937 cells (CRL-1593.2) were plated at a density of 3.2×10^4 cells per well in a 96-well plate in 100 μL RPMI-1640 containing 10% FBS and penicillin/streptomycin, and differentiated into macrophages for 3 days in 60 ng/mL PMA ([…]) at 37° C. in 5% CO2 prior to the addition of compound. The cells were pretreated for 1 h with increasing concentrations of test compound in 0.1% DMSO prior to stimulation with 1 ug/mL lipopolysaccharide from Escherichia coli. Triplicate wells were used for each concentration. The cells were incubated at 37° C., 5% CO2 for 3 h before the cells were harvested. At time of harvest, media was removed and cells were rinsed in 200 μL PBS. Cells were harvested using the mRNA Catcher PLUS kit according to manufacturer's instructions. The eluted mRNA was then used in a one-step quantitative real-time PCR reaction using components of the RNA UltraSense™ One-Step Kit (Life Technologies) together with Applied Biosystems TaqMan® primer-probes for hIL-6 and Cyclophilin. Real-time PCR plates were run on a VIa™ 7 real time PCR machine (Applied Biosystems), data was analyzed, normalizing the Ct values for hIL-6 to an internal control, prior to determining the fold expression of each sample, relative to the control.
# [1] = molecular target: T1, Brd4 bromodomain 1 (BRD4(1)) (Homo sapiens, UniProt O60885); assay: Inhibition of tetra-acetylated histone H4 binding to Brd4 bromodomain 1 (TR-FRET); conditions: tetra-acetylated histone H4 peptide, first bromodomain of Brd4
# T1 construct: made in house; host or cells: E. coli BL21(DE3)
# Summary of the method: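 His-tagged BRD4(1) from E. coli (200 nM) with biotinylated tetra-acetylated H4 peptide (25-50 nM), Eu-cryptate streptavidin and XL665 anti-His, in HEPES pH 7.4/phosphate/KF buffer, 0.2% DMSO. After 2 h at room temperature, TR-FRET 665/620 nm ratio read; IC50 from dose-response curves.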
# c-myc = assay: Inhibition of c-myc expression (mRNA, real-time PCR) in MV4-11 cells; assay type: cell-based; conditions: Human AML MV4-11 cells, 3 h, cMYC mRNA
# Procedure: MV4-11 cells (CRL-9591) were plated at a density of 2.5×10^4 cells per well in 96 well U-bottom plates and treated with increasing concentrations of test compound or DMSO (0.1%) in IMDM media containing 10% FBS and penicillin/streptomycin, and incubated for 3 h at 37° C. Triplicate wells were used for each concentration. Cells were pelleted by centrifugation and harvested using the mRNA Catcher PLUS kit according to manufacturer's instructions. The eluted mRNA isolated was then used in a one-step quantitative real-time PCR reaction, using components of the RNA UltraSense™ One-Step Kit (Life Technologies) together with Applied Biosystems TaqMan® primer-probes for cMYC and Cyclophilin. Real-time PCR plates were run on a VIaTM7 real time PCR machine (Applied Biosystems), data was analyzed, normalizing the Ct values for cMYC to an internal control, prior to determining the fold expression of each sample, relative to the control.
SMILES,IC50 (human AML MV-4-11 cells) [nM],IC50 (hIL-6 mRNA) [nM],IC50 [1] [nM],IC50 (c-myc) [nM],Cell Proliferation activity (human AML MV-4-11 cells)
"Cc1noc(C)c1-c1cnc2c(c1)ncn2Cc1ccc(C(F)(F)F)cc1 [Example Compound 40, 3,5-dimethyl-4-(3-(4-(trifluoromethyl)benzyl)-3H-imidazo[4,5-b]pyridin-6-yl)isoxazole]",,3000 to 30000,300 to 3000,,Not active
"Cc1noc(C)c1-c1nc(N)c2ncn(Cc3ccccc3)c2n1 [Example Compound 1, 9-Benzyl-2-(3,5-dimethylisoxazol-4-yl)-9H-purin-6-amine]",,300 to 3000,300 to 3000,,Not active
"Cc1noc(C)c1-c1cnc2ncn(Cc3ccc(Cl)cc3)c2c1 [Example Compound 43, 4-(1-(4-chlorobenzyl)-1H-imidazo[4,5-b]pyridin-6-yl)-3,5-dimethylisoxazole]",300 to 3000,300 to 3000,≤ 300,,
"Cc1noc(C)c1-c1cc([N+](=O)[O-])c2c(c1)n(Cc1ccccc1)c(=O)n2C [compound 150, 1-benzyl-6-(3,5-dimethylisoxazol-4-yl)-3-methyl-4-nitro-1H-benzo[d]imidazol-2(3H)-one]",,300 to 3000,≤ 300,,Not active
"Cc1noc(C)c1-c1cc(N)c2c(c1)n(Cc1ccccc1)c(=O)n2C [compound 162, 4-amino-1-benzyl-6-(3,5-dimethylisoxazol-4-yl)-3-methyl-1H-benzo[d]imidazol-2(3H)-one]",≤ 300,≤ 300,≤ 300,,
"Cc1noc(C)c1-c1ccc2ncc(=O)n(Cc3ccccc3)c2c1 [Example Compound 11, 1-Benzyl-7-(3,5-dimethylisoxazol-4-yl)quinoxalin-2(1H)-one]",,300 to 3000,≤ 300,,Not active
"Cc1noc(C)c1-c1cc2c(ccn2Cc2ccccc2)[nH]c1=O [Example Compound 56, 1-benzyl-6-(3,5-dimethylisoxazol-4-yl)-1H-pyrrolo[3,2-b]pyridin-5(4H)-one]",,3000 to 30000,300 to 3000,,
"Cc1noc(C)c1-c1cc(O)c2nc(C)n(Cc3ccccc3)c2c1 [compound 173, 1-benzyl-6-(3,5-dimethylisoxazol-4-yl)-2-methyl-1H-benzo[d]imidazol-4-ol]",300 to 3000,,≤ 300,≤ 300,
"Cc1noc(C)c1-c1cnc2nc(NCc3ccncc3)n(Cc3ccccc3)c2c1 [compound 169, 1-benzyl-6-(3,5-dimethylisoxazol-4-yl)-N-(pyridin-4-ylmethyl)-1H-imidazo[4,5-b]pyridin-2-amine]",≤ 300,,≤ 300,≤ 300,
"Cn1nccc1-c1cc([N+](=O)[O-])c2c(c1)n(Cc1ccccc1)c(=O)n2C [compound 198, 1-benzyl-3-methyl-6-(1-methyl-1H-pyrazol-5-yl)-4-nitro-1H-benzo[d]imidazol-2(3H)-one]",3000 to 30000,,≤ 300,3000 to 30000,
"Cc1noc(C)c1-c1cnc2nc(C)n(CC3CCCCC3)c2c1 [compound 191, 4-(1-(cyclohexylmethyl)-2-methyl-1H-imidazo[4,5-b]pyridin-6-yl)-3,5-dimethylisoxazole]",300 to 3000,,≤ 300,≤ 300,

# Second part, led by results:
IC50 (human AML MV-4-11 cells) [nM],IC50 (hIL-6 mRNA) [nM],IC50 [1] [nM],IC50 (c-myc) [nM],SMILES,Cell Proliferation activity (human AML MV-4-11 cells)
300 to 3000,3000 to 30000,≤ 300,,"Cc1noc(C)c1-c1cnc2ncn(Cc3ccc(C(F)(F)F)cc3)c2c1 [Example Compound 41, 3,5-dimethyl-4-(1-(4-(trifluoromethyl)benzyl)-1H-imidazo[4,5-b]pyridin-6-yl)isoxazole]",
,≤ 300,≤ 300,,"CC(=O)Nc1cc(-c2c(C)noc2C)cc2c1n(C)c(=O)n2Cc1ccccc1 [compound 164, N-(1-benzyl-6-(3,5-dimethylisoxazol-4-yl)-3-methyl-2-oxo-2,3-dihydro-1H-benzo[d]imidazol-4-yl)acetamide]",
≤ 300,≤ 300,≤ 300,,"COCCNc1nc2c([N+](=O)[O-])cc(-c3c(C)noc3C)cc2n1Cc1ccccc1 [compound 137, 1-benzyl-6-(3,5-dimethylisoxazol-4-yl)-N-(2-methoxyethyl)-4-nitro-1H-benzo[d]imidazol-2-amine]",
3000 to 30000,300 to 3000,300 to 3000,,"Cc1noc(C)c1-c1ccc2[nH]cc(Nc3ccccc3)c2n1 [Example Compound 23, 5-(3,5-dimethylisoxazol-4-yl)-N-phenyl-1H-pyrrolo[3,2-b]pyridin-3-amine]",
300 to 3000,300 to 3000,≤ 300,,"Cc1noc(C)c1-c1cc([N+](=O)[O-])c2nc(N3CCN(C)CC3)n(Cc3ccccc3)c2c1 [compound 136, 4-(1-benzyl-2-(4-methylpiperazin-1-yl)-4-nitro-1H-benzo[d]imidazol-6-yl)-3,5-dimethylisoxazole]",
300 to 3000,≤ 300,≤ 300,,"Cc1noc(C)c1-c1cc(C(N)=O)c2[nH]c(=O)n(Cc3ccccc3)c2c1 [Example Compound 21, 1-benzyl-6-(3,5-dimethylisoxazol-4-yl)-2-oxo-2,3-dihydro-1H-benzo[d]imidazole-4-carboxamide]",
300 to 3000,≤ 300,≤ 300,,"Cc1noc(C)c1-c1cc([N+](=O)[O-])c2nc(N3CCCC3)n(Cc3ccccc3)c2c1 [compound 135, 4-(1-benzyl-4-nitro-2-(pyrrolidin-1-yl)-1H-benzo[d]imidazol-6-yl)-3,5-dimethylisoxazole]",
3000 to 30000,,≤ 300,300 to 3000,"Cc1noc(C)c1-c1cc(N2CCC2=O)c2nc(C)n(Cc3ccccc3)c2c1 [compound 183, 1-(1-benzyl-6-(3,5-dimethylisoxazol-4-yl)-2-methyl-1H-benzo[d]imidazol-4-yl)azetidin-2-one]",
3000 to 30000,300 to 3000,300 to 3000,,"Cc1noc(C)c1-c1cc2c(cn1)ncn2Cc1ccccc1 [Example Compound 31, 4-(1-benzyl-1H-imidazo[4,5-c]pyridin-6-yl)-3,5-dimethylisoxazole]",
300 to 3000,,≤ 300,300 to 3000,"Cc1noc(C)c1-c1cnc2nc(C)n(CC3CCCC3)c2c1 [compound 192, 4-(1-(cyclopentylmethyl)-2-methyl-1H-imidazo[4,5-b]pyridin-6-yl)-3,5-dimethylisoxazole]",
300 to 3000,,≤ 300,300 to 3000,"Cc1noc(C)c1-c1cnc2nc(NCCN(C)C)n(Cc3ccccc3)c2c1 [compound 212, N1-(1-benzyl-6-(3,5-dimethylisoxazol-4-yl)-1H-imidazo[4,5-b]pyridin-2-yl)-N2,N2-dimethylethane-1,2-diamine]",
300 to 3000,,≤ 300,300 to 3000,"Cc1noc(C)c1-c1cnc2[nH]c(=O)n(Cc3ccccc3)c2c1C [compound 180, 1-benzyl-6-(3,5-dimethylisoxazol-4-yl)-7-methyl-1H-imidazo[4,5-b]pyridin-2(3H)-one]",
3000 to 30000,,≤ 300,3000 to 30000,"Cc1noc(C)c1-c1cc([N+](=O)[O-])c2[nH]c(=O)n(CC3CC3)c2c1 [compound 145, 1-(cyclopropylmethyl)-6-(3,5-dimethylisoxazol-4-yl)-4-nitro-1H-benzo[d]imidazol-2(3H)-one]",
300 to 3000,,≤ 300,300 to 3000,"Cc1noc(C)c1-c1cc(N2CCOCC2)c2nc(C)n(Cc3ccccc3)c2c1 [compound 182, 4-(1-benzyl-6-(3,5-dimethylisoxazol-4-yl)-2-methyl-1H-benzo[d]imidazol-4-yl)morpholine]",
